{"source": "patent US20090170803A1", "about": "“[…] OF […]” (priority 2002, published 2009)", "key": {"[1]": {"system": "human PMNL", "assay": "Preliminary in vitro studies: effects of A2AAR agonists on phagocytic cells (human PMNL)", "assay_type": "cell-based"}, "[2]": {"system": "human monocytes", "assay": "Inhibition of LPS-stimulated human monocyte TNF production", "assay_type": "cell-based"}, "[3]": {"system": "C57BL/6 mice", "assay": "Murine model of endotoxin-induced septic shock (E. coli 026:B6 LPS), mortality", "assay_type": "in vivo", "design": "protection of mice from E. Coli 026:B6 LPS-induced endotoxemia, dose response (FIG. 1): dose or concentration left out as unconfirmed"}, "[4]": {"system": "A2A-KO mice", "assay": "Murine septic shock model in A2A-KO mice", "assay_type": "in vivo", "conditions": "5 μg/kg, four doses at six hour intervals beginning 12 hours after LPS 12.5 mg/kg"}, "[5]": {"system": "E. Coli", "assay": "Mice injected with live E. Coli and treated with ceftriaxone, survival", "assay_type": "in vivo", "conditions": "20 million E. Coli IP at time 0; ceftriaxone once at time 0; 50 μg/kg ATL146e 8 times at 6 hour intervals"}, "[6]": {"system": "IL-6", "design": "species or system C57BL/6 mice", "conditions": "mouse, in vivo, ip"}, "[7]": {"system": "RANTES", "design": "species or system C57BL/6 mice", "conditions": "mouse, in vivo"}, "[8]": {"system": "neutrophils in kidneys", "design": "species or system C57BL/6 mice", "conditions": "mouse, in vivo, ip"}}, "note": "Entries after “also recorded” stand apart in the source; their conditions may differ.", "data": [{"molecule": "CCNC(=O)[C@H]1O[C@@H](n2cnc3c(N)nc(C#CCC4CCC(COC(C)=O)CC4)nc32)C(O)C1O", "note": "(stereo in doubt) [ATL193, Acetic acid 4-{3-[6-amino-9-(5-ethylcarbamoyl-3,4-dihydroxytetrahydrofuran-2-yl)-9H-purin-2-yl]-prop-2-ynyl}-cyclohexylmethyl Ester]", "values": [{"measurement": "effects on phagocytic cells in vitro and in animal models of acute inflammation", "setting": "[1]", "result": "potent agonists and provide anti-inflammatory responses"}]}, {"molecule": "Rolipram [reference compound]", "values": [{"measurement": "accentuation of the A2AAR agonist effects on activation of PMNLs", "setting": "[1]; with A2AAR agonists", "result": "synergistically accentuates"}]}, {"molecule": "CCNC(=O)[C@H]1O[C@@H](n2cnc3c(N)nc(C#CCC4CCC(C(=O)OC)CC4)nc32)C(O)C1O", "note": "(stereo in doubt) [ATL146e, 4-{3-[6-Amino-9-(5-ethylcarbamoyl-3,4-dihydroxy-tetrahydro-furan-2-yl)-9H-purin-2-yl]-prop-2-ynyl}cyclohexanecarboxylic acid methyl ester]", "values": [{"measurement": "effects on phagocytic cells in vitro and in animal models of acute inflammation", "setting": "[1]", "result": "potent agonists and provide anti-inflammatory responses"}, {"measurement": "inhibition of LPS-stimulated human monocyte TNF production, potency comparison", "setting": "[2]", "result": "more potent than CGS21680"}, {"measurement": "protection from death (FIG. 2)", "setting": "[3]; 5 μg/kg i.p. at 6-hour intervals for 24 hours beginning simultaneously with LPS 12.5 mg/kg, p=0.0002", "result": "protection from death"}, {"measurement": "protection from death after a delay in the onset of therapy (FIG. 3)", "setting": "[3]; 5 μg/kg i.p. at six hour intervals, four doses, delay of 24 hours following LPS challenge (12.5 mg/kg)", "result": "protection from death"}, {"measurement": "protection of mice from E. Coli 026:B6 LPS-induced endotoxemia, dose response (FIG. 1)", "setting": "[3]; IP one hour prior to LPS and at 6 hour intervals, 8 doses/48 hours", "result": "dose dependent response"}, {"measurement": "protection at the highest dosages", "setting": "[3]; highest dosages, LPS 12.5 mg/kg", "result": "complete protection"}, {"measurement": "survival at 4 days", "setting": "[3]; highest doses, vehicle mortality 75%", "result": 100, "unit": "%"}, {"measurement": "protective effect in A2A-KO mice relative to wild type", "setting": "[4]", "result": "less protection; also recorded: completely lost"}, {"measurement": "survival of mice injected with live E. Coli and treated with ceftriaxone, compared to antibiotic alone (FIG. 6)", "setting": "[5]", "result": "increases survival"}, {"measurement": "renal IL-6 levels, relative to those from mice exposed to LPS/Stx2 (FIG. 7)", "setting": "[6]", "result": "approximately 16%"}, {"measurement": "chemokine Renal RANTES in kidney samples (FIG. 8)", "setting": "[7]", "result": "reduction"}]}, {"molecule": "CCNC(=O)[C@H]1O[C@@H](n2cnc3c(N)nc(C#C[C@]4(O)CCC[C@@H](C)C4)nc32)C(O)C1O", "note": "(stereo in doubt) [ATL-203, 5-[6-Amino-2-(1-hydroxy-3-methylcyclohexylethynyl)purin-9-yl]-3,4-dihydroxytetrahydrofuran-2-carboxylic acid ethylamide]", "values": [{"measurement": "renal IL-6 levels, relative to those from mice exposed to LPS/Stx2 (FIG. 7)", "setting": "[6]", "result": "approximately 16%"}, {"measurement": "chemokine Renal RANTES in kidney samples (FIG. 8)", "setting": "[7]", "result": "reduction"}, {"measurement": "neutrophil positive glomeruli, relative to the Stx2 positive samples (FIG. 9)", "setting": "[8]", "result": 40, "unit": "%"}]}, {"molecule": "Nc1nc(NCCc2ccc(O)cc2)nc2nc(-c3ccco3)nn12", "note": "[ZM241385, reference compound]", "values": [{"measurement": "block by A2AAR antagonist of the agonist effect on TNF-stimulated superoxide release", "setting": "[1]; adherent PMNLs, with A2AAR agonists", "result": "completely blocked"}, {"measurement": "reversal of the inhibition of monocyte TNF production by A2AAR antagonist", "setting": "[2]; with ATL146e", "result": "reversed"}, {"measurement": "protective efficacy of ATL146e when ZM is co-administered (FIG. 4)", "setting": "[3]; ZM in equimolar concentrations (3 μg/kg) with ATL146e, six hour intervals for 24 hours beginning 12 hours after LPS", "result": "nearly eliminated"}, {"measurement": "protection from death by antagonist alone (FIG. 4)", "setting": "[3]; six hour intervals for 24 hours beginning 12 hours after LPS challenge", "result": "does not protect"}]}]}
